# US7803350B2, “Radioactive arsenic-containing compounds and their uses in the treatment of tumors” (Institute of Nuclear Energy Research Rocaec, priority 2003, dated 2010)
# Several values for one entry are separate records, joined by “and”; a condition that tells them apart may be missing. Equal values may be shown once.
# Columns and labels:
# [1] = system: N1-S1 rat hepatoma liver tumors; test: Therapeutic effect assessment, continuous tail vein injection, rats with liver tumors; assay type: in vivo; set-up: key to Response: Increase in size of tumor (In %) is classified as “Poor Response”; decrease in size of tumor within 0%-40% is classified as “Mild Response”; decrease in size of tumor to 50% or more or disappearance of tumor is classified as “Good Response.”; details: for Effect on the inhibition of tumor growth / Survival of the group in week 8: continuous tail vein injection; for Response / Survival time: individual rats, continuous tail vein injection 0.45 mg/kg for two weeks
# Excerpt: (§1) The tumor cells for the establishment of the animal model with liver tumor were of a rat hepatoma cell line, N1-S-1, purchased from the American Type Culture Collection (ATCC, P.O. Box 1549, Manassas, Va. 20108 USA), and were subcultured to set up a Master Cell Bank and a Working Cell Bank.
# (§2) The rat hepatoma cells, N1-S1, were suspended cells that were dispersed in Iscove's Modified Dulbecco's Medium (IMDM) (GibcoBRL®) supplemented with 1% penicillin (GibcoBRL®) and 10% fetal bovine serum (GibcoBRL®), and were cultured in an incubator with 5% CO2, at 37° C.
# (§3) When cultured to 1.5×10^6 cell/ml, 4×10^6 cell/0.06 ml of N1-S1 cells were sampled and then implanted into Spawn-Dawley male rats (5-week-old, 150 g) between the liver and liver capsule by surgery, and the wounds were closed by sutures. Rearing of the rats was continued for ten days, and ultrasonic scanning was used to detect any growth of liver tumor and tumor size. After scanning, animals that had developed liver tumors were used to conduct the experiments of tumor growth inhibition, and euthanasia was practiced on the rest of the rats.
# The rats with liver tumors were given normal saline, an injection solution containing arsenic trioxide without neutron irradiation treatment (concentration: 1 mg/ml; animal injection dosage: 0.45 mg/kg), and the injection solution prepared in Example 1 which contained radioactive arsenic trioxide having subjected to neutron irradiation treatment (radioactivity range: 2.77˜3.25 mCi/ml; concentration: 1 mg/ml; and animal injection dosage: 0.45 mg/kg), respectively, via tail vein injection, and the injection was continued for two weeks.
# (§4) Before injection, the size of the liver tumors was examined by ultrasonic scanning. Ultrasonic scanning was conducted in the first week, the second week, and the fifth week, respectively, after start of the injection so as to observe the change in size of the tumor. Finally, the rats were sacrificed for observing whether there was metastasis.
# [2] = system: N1-S1 rat hepatoma liver tumors; test: Therapeutic effect assessment, hepatic artery single injection, rats with liver tumors; assay type: in vivo; details: for Therapeutic effect on the tumors: hepatic artery single injection
# Excerpt: as §1, §2, §3
# The blood vessels of the hepatic artery were dissected from the hepatic tissue of the rats by surgery, and normal saline, an injection solution containing arsenic trioxide without neutron irradiation treatment (concentration: 1 mg/ml; and animal injection dosage: 0.45 mg/kg), and the injection solution prepared in Example 1 which contained radioactive arsenic trioxide having subjected to neutron irradiation treatment (radioactivity range: 2.77˜3.25 mCi/ml; concentration: 1 mg/ml; and animal injection dosage: 0.45 mg/kg dose), were injected respectively via the hepatic artery in single injections.
# as §4, with “injection” for “injection so as”
# [3] = Biodistribution test of radioactive arsenic trioxide in rats with liver tumors (gamma counter); assay type: in vivo
# Procedure: Hepatic Artery Injection:
# The hepatic artery was dissected from the hepatic tissue of the rats by surgery. A PE-10 tube was introduced into the hepatic artery, and the test solution containing neutron-irradiated arsenic trioxide as prepared in Example 1 was injected into the hepatic artery. The PE-10 tube was removed after injection, and a surgical thread was used to bind and fix the blood vessels, followed by suturing of the wound.
# The test injection solution containing neutron-irradiated arsenic trioxide as prepared in Example 1 was injected into the tail vein using a syringe with needle no. 25.
# (§5) A fixed amount of radioactive arsenic trioxide (radioactivity range: 2.77˜3.25 mCi/ml, concentration: 1 mg/ml, animal injection dose: 0.45 mg/kg) prepared in Example 1 was injected into the rats with liver tumors through the hepatic artery and tail vein, respectively.
# (§6) The rats were sacrificed by taking a large amount of blood from the heart at hours 2, 4, 16, 24 and 48, respectively, after injection, and the blood, hearts, lungs, livers, spleens, kidneys, intestines, bladders, muscles, and tumors were removed. These tissues or organs were placed in respective tubes, and their irradiation intensity was measured by a gamma counter (Wallac 1470 WIZARD). The content percentage of arsenic trioxide per each gram of the tissue or organ was calculated using standard curve regression. There were two or three experimented rats in each experimental group.
# Some of the organs and tissues (blood, kidneys and livers) were transferred to the Institute of Nuclear Energy Research for conducting Inductively Coupled Plasma Mass Spectrometry (ICP-MAS) so as to observe the biodistribution of arsenic trioxide in the tumors and organs or tissues.
# [4] = Radiation absorption dose in organs or tissues and tumors (MIRD method, MIRDOSE 3); assay type: in vivo, rats; details: for Radiation absorption dose, Lung: rats with liver tumors
# Procedure: as §5, §6
# Radioactive arsenic trioxide was injected respectively into the tail vein and hepatic artery of the rats by I.V. and I.H. The dosage was calculated using MIRD method, and the residence time in each of the organs and the tumors was calculated using Excel software. Finally, the radiation absorption dose in each of the organs or tissues and the tumors was calculated using MIROSE 3 software.
# [5] = system: N1-S1 rat hepatoma liver tumors; test: Therapeutic effect assessment, liver tumor direct injection, rats with liver tumors; assay type: in vivo; details: for Response / Survival time: individual rats, liver tumor direct injection 0.45 mg/kg once every week, twice in total; for Change of tumor size 4 weeks after injection: liver tumor direct injection
# Excerpt: as §1, §2, §3
# The rats with liver tumors were subjected to surgery. After the locations of the liver tumors were found, the tumors were directly injected with normal saline, an injection containing arsenic trioxide without neutron irradiation treatment (concentration: 1 mg/ml; animal injection dosage: 0.45 mg/kg), and the injection prepared in Example 1 which contained radioactive arsenic trioxide having subjected to neutron irradiation treatment (radiation activity range: 2.77˜3.25 mCi/ml; concentration: 1 mg/ml of concentration; and animal injection dosage: 0.45 mg/kg), respectively, once every week, twice in total.
# as §4, with “injection” for “injection so as”
# [6] = system: acute promyelocytic leukemia cell lines; details: cited from earlier work
# [7] = system: acute promyelocytic leukemia; details: cited from earlier work
# [8] = individual rats, hepatic artery single injection 0.45 mg/kg
# [9] = individual rats, hepatic artery single injection 0.45 mg/kg, 0.45 mg/kg
compound,measurement,setting,value
"O=[76As]O[76As]=O (stereo not shown) [Radioactive arsenic trioxide, radioactive arsenic trioxide]",Effect on the inhibition of tumor growth,[1],most noticeable
same,Survival of the group in week 8,[1],all alive in week 8
same,Response,[1],Good (decrease in size of tumor to 50% or more or disappearance of tumor is classified as “Good Response.”)
same,Survival time,[1],>56 days
same,Therapeutic effect on the tumors,[2],complete disappearance of the tumors in some of the animals 2 weeks after injection
same,Response,[2]; [8],Good (decrease in size of tumor to 50% or more or disappearance of tumor is classified as “Good Response.”)
same,Survival time,[2]; [8],>42 days
same,Tumor Size After injection Week 2,[2]; [9],Disappeared
same,Tumor Size After injection Week 5,[2]; [9],Disappeared
same,"Contents of radioactive arsenic trioxide in the heart, the lung, and the spleen","[3]; 0.45 mg/kg, hepatic artery and tail vein injection, hours 2-48 (FIG. 3)",1˜3 % ID/g
same,Residual contents in all the organs or tissues,"[3]; 48 hours after injection, IV and IH (FIG. 3)",dropped
same,Time of peak content of radioactive arsenic trioxide in the liver tumor,"[3]; hepatic artery injection, 0.45 mg/kg (FIG. 2)",between hours 2 and 4
same,Time after which contents in the liver tumors by the two routes reached identical equivalent values,[3]; hepatic artery vs tail vein injection (FIG. 2),16 h
same,Contents in the bladder and urine relative to other tested organs,[3]; hour 4 after injection via hepatic artery and tail vein,second only to that in the tumor
same,"Radiation absorption dose, Intestine",[4]; IH (hepatic artery injection),0.23 mGy/MBq
same,"Radiation absorption dose, Kidney",[4]; IH (hepatic artery injection),0.28 mGy/MBq
same,"Radiation absorption dose, Liver",[4]; IH (hepatic artery injection),0.21 mGy/MBq
same,"Radiation absorption dose, Muscle",[4]; IH (hepatic artery injection),0.12 mGy/MBq
same,"Radiation absorption dose, Spleen",[4]; IH (hepatic artery injection),0.95 mGy/MBq
same,"Radiation absorption dose, Tumor",[4]; IH (hepatic artery injection),21 mGy/MBq
same,"Radiation absorption dose, Lung",[4]; IH (hepatic artery injection),0.56 mGy/MBq
same,"Radiation absorption dose, Intestine",[4]; IV (tail vein injection),0.16 mGy/MBq
same,"Radiation absorption dose, Kidney",[4]; IV (tail vein injection),0.25 mGy/MBq
same,"Radiation absorption dose, Liver",[4]; IV (tail vein injection),0.13 mGy/MBq
same,"Radiation absorption dose, Muscle",[4]; IV (tail vein injection),0.06 mGy/MBq
same,"Radiation absorption dose, Spleen",[4]; IV (tail vein injection),0.76 mGy/MBq
same,"Radiation absorption dose, Tumor",[4]; IV (tail vein injection),4.26 mGy/MBq
same,"Radiation absorption dose, Lung",[4]; IV (tail vein injection),0.47 mGy/MBq
same,Response,[5],Good (decrease in size of tumor to 50% or more or disappearance of tumor is classified as “Good Response.”)
same,Survival time,[5],>30 days
same,Change of tumor size 4 weeks after injection,[5],the tumors in all of the animals shrank in 4 weeks of injection
arsenic trioxide [reference compound],Effect on the inhibition of tumor growth,[1],not significant
same,Survival of the group in week 8,[1],still alive in week 8
same,Response,[1]; 0.45 mg/kg,Poor (3×) and Mild (decrease in size of tumor within 0%-40% is classified as “Mild Response”) (2×)
same,Survival time,[1]; 0.45 mg/kg,14 day (2×) and 42 day and 7 day and 40 day
same,Therapeutic effect on the tumors,[2],not satisfactory
same,Response,[2]; [9],Mild (decrease in size of tumor within 0%-40% is classified as “Mild Response”) (2×) and Poor (2×)
same,Survival time,[2]; [9],>42 day (2×) and 36 day and 39 day
same,Concentrations inducing cell differentiation,[6]; low concentrations,0.1 to 0.5 µmol/L
same,Concentrations triggering apoptosis,[6]; relatively high concentrations,0.5 to 2 µmol/L
same,"Side effects (gastrointestinal disturbance, facial edema and cardiac toxicity)","[7]; low-dose, 0.08 mg/kg daily for 28 days intravenously",reduced
same,complete remission rate,"[7]; patients with relapsed acute promyelocytic leukemia, intravenously 0.08 mg/kg daily for 28 days",80%
same,complete remission (CR) rate,"[7]; patients with relapsed acute promyelocytic leukemia, intravenously 10 mg/d",90%
same,Survival time,[5],>30 days
same,Response,[5]; 0.45 mg/kg,Mild (decrease in size of tumor within 0%-40% is classified as “Mild Response”) and Poor and Good (decrease in size of tumor to 50% or more or disappearance of tumor is classified as “Good Response.”)
same,Change of tumor size 4 weeks after injection,[5],"slightly smaller than the size of the tumors 1 week after injection, while the tumors in some of the animals still grew"
